Experimental data as given in the kinase profiling compilation of Christmann-Franck et al. (2016).

Legend:
Experiment in all cases: radiometric filter-binding kinase assay
ABL1 (human) = ABL1 (human) (UniProt P00519)
CDK9 CCNT1 (human) = CDK9 CCNT1 (human) (UniProt P50750+O60563)
CSNK1G2 (human) = CSNK1G2 (human) (UniProt P78368)
DDR2 (human) = DDR2 (human) (UniProt Q16832)
EIF2AK3 (human) = EIF2AK3 (human) (UniProt Q9NZJ5)
GSK3B (human) = GSK3B (human) (UniProt P49841)
IRAK1 (human) = IRAK1 (human) (UniProt P51617)
IRAK1 (human), sequence (P51617 whole entry, looked up): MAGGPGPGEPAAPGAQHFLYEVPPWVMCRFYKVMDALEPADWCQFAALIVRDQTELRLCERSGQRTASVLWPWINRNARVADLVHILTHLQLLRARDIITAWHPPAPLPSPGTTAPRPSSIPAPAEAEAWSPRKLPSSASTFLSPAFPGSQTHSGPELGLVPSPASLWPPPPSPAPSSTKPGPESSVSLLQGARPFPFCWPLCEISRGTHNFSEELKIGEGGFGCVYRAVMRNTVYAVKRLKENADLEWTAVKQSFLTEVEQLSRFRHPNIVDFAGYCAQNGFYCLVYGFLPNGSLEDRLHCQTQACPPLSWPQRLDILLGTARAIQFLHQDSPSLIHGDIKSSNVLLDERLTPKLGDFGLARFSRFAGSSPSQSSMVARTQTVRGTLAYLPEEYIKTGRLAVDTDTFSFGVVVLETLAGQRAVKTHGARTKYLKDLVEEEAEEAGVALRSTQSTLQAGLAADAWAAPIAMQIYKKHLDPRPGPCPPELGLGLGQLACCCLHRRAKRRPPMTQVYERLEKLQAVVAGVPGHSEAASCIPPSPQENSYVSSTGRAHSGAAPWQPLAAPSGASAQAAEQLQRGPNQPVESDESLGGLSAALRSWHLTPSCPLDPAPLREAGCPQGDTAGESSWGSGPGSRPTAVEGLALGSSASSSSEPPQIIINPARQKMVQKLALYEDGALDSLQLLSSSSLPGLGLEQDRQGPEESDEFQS

MAP4K3 (human) = MAP4K3 (human) (UniProt Q8IVH8)
MAP4K5 (human) = MAP4K5 (human) (UniProt Q9Y4K4)
MAPK7 (human) = MAPK7 (human) (UniProt Q13164)
[1] = test system: OXSR1 (human), O95747 [T185E]
PDGFRA (human) = PDGFRA (human) (UniProt P16234)
[2] = molecular target: PRKAA1 PRKAB2 PRKAG1 (human) (UniProt O43741+Q13131+P54619)
PRKCG (human) = PRKCG (human) (UniProt P05129)
PTK6 (human) = PTK6 (human) (UniProt Q13882)
SIK2 (human) = SIK2 (human) (UniProt Q9H0K1)
SIK3 (human) = SIK3 (human) (UniProt Q9Y2K2)
SRPK1 (human) = SRPK1 (human) (UniProt Q96SB4)
SRPK1 (human), sequence (Q96SB4 whole entry, looked up): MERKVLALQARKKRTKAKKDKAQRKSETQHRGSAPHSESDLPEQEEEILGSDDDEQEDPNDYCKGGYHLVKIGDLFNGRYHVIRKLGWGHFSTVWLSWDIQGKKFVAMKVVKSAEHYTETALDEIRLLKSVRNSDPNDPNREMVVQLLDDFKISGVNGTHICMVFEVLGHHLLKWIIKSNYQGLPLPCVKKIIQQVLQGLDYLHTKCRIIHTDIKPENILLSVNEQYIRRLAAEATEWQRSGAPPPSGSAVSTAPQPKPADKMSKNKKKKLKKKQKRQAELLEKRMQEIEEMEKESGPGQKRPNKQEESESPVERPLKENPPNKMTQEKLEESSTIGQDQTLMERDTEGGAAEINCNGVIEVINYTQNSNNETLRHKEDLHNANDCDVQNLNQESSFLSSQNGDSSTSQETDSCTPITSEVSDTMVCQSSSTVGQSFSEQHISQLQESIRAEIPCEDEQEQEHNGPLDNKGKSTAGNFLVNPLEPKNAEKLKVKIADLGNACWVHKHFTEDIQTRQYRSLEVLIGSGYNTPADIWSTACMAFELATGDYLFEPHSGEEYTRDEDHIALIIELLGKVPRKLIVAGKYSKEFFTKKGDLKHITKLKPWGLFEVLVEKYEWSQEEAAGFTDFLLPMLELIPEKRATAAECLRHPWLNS

STK16 (human) = STK16 (human) (UniProt O75716)
STK24 (human) = STK24 (human) (UniProt Q9Y6E0)
STK33 (human) = STK33 (human) (UniProt Q9BYT3)
TEK (human) = TEK (human) (UniProt Q02763)
TESK1 (human) = TESK1 (human) (UniProt Q15569)
[3] = test system: TGFBR1 (human), P36897 [T204D]
TLK1 (human) = TLK1 (human) (UniProt Q9UKI8)
TSSK1B (human) = TSSK1B (human) (UniProt Q9BXA7)
TTBK1 (human) = TTBK1 (human) (UniProt Q5TCY1)
TTBK1 (human), sequence (Q5TCY1 whole entry, looked up): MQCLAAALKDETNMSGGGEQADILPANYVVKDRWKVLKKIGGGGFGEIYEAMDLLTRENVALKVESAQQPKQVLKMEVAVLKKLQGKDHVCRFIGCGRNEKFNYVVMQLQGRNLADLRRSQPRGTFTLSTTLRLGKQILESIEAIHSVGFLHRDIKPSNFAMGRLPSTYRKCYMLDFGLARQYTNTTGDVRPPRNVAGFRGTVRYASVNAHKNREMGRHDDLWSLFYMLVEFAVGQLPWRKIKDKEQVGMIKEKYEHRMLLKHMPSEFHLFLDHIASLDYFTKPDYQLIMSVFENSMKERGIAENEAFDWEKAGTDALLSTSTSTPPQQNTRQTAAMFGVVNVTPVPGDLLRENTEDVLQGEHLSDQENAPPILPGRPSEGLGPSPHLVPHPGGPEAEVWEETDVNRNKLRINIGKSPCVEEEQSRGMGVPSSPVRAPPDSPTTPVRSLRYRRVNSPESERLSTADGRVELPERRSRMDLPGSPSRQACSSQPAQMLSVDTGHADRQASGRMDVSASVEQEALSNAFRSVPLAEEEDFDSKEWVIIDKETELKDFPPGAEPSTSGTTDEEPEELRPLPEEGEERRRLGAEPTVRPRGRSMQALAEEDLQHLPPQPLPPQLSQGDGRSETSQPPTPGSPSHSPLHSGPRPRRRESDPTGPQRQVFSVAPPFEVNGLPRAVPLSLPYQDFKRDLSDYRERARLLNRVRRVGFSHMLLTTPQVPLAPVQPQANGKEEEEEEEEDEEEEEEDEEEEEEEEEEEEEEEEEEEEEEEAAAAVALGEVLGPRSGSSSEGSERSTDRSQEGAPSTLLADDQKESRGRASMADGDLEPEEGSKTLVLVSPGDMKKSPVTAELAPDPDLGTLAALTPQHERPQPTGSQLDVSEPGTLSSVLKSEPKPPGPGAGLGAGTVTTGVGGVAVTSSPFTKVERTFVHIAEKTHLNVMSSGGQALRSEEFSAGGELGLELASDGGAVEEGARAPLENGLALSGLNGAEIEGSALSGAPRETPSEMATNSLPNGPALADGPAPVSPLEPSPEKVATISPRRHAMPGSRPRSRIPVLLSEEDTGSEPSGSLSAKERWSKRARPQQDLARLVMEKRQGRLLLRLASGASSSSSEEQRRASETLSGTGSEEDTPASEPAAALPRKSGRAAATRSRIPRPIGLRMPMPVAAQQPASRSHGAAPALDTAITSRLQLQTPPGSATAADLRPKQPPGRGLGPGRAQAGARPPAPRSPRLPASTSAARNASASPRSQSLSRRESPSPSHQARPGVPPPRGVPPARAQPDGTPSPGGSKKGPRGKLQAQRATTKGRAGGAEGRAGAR

TTBK2 (human) = TTBK2 (human) (UniProt Q6IQ55)
ULK1 (human) = ULK1 (human) (UniProt O75385)
ULK2 (human) = ULK2 (human) (UniProt Q8IYT8)
ULK2 (human), sequence (Q8IYT8 whole entry, looked up): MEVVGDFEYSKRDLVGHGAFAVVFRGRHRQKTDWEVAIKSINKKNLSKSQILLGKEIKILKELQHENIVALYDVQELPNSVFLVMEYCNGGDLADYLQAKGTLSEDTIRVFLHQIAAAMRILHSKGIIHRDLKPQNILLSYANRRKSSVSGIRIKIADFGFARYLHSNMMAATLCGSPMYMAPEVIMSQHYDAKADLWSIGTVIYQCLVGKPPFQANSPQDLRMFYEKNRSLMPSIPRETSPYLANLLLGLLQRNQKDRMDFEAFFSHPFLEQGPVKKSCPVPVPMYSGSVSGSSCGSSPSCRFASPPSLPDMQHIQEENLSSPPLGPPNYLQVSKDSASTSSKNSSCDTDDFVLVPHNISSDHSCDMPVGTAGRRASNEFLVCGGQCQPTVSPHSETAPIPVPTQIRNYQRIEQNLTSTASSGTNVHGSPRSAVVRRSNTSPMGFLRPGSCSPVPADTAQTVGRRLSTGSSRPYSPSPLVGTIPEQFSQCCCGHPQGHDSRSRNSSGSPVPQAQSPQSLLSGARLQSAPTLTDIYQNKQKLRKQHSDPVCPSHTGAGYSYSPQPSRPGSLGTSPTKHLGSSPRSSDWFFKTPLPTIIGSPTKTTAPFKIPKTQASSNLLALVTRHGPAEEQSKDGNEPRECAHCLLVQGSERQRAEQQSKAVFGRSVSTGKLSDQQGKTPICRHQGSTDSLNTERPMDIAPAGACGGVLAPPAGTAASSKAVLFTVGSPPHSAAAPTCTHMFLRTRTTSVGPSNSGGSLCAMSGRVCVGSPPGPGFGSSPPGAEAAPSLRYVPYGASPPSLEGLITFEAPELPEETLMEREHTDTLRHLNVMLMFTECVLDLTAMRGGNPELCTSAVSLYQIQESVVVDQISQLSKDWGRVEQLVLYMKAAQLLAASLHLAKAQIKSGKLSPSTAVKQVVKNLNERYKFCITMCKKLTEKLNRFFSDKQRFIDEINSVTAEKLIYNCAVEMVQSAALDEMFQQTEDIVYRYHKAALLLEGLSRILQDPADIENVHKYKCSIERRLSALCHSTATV

WNK1 (human) = WNK1 (human) (UniProt Q9H4A3)
ZAP70 (human) = ZAP70 (human) (UniProt P43403)

CDK9 CCNT1 (human), sequence (O60563 whole entry, looked up): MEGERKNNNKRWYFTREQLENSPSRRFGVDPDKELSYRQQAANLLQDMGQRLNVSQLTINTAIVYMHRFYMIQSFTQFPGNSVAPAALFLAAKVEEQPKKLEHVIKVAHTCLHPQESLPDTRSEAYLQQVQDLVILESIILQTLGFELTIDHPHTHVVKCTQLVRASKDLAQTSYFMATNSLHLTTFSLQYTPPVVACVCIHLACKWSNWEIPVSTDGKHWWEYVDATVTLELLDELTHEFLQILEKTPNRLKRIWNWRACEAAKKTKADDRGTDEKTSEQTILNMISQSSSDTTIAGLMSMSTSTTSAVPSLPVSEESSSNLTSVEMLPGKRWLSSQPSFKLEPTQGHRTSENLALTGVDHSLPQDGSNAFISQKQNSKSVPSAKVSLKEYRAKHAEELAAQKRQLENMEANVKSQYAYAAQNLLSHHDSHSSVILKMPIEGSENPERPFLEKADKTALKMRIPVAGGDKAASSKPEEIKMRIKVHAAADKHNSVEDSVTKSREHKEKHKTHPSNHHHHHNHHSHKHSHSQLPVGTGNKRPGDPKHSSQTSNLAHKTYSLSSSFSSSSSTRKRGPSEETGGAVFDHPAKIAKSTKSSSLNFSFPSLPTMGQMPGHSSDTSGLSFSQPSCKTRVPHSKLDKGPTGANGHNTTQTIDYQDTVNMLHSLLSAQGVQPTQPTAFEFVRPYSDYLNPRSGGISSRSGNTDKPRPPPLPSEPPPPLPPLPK
CDK9 CCNT1 (human), sequence (P50750 whole entry, looked up): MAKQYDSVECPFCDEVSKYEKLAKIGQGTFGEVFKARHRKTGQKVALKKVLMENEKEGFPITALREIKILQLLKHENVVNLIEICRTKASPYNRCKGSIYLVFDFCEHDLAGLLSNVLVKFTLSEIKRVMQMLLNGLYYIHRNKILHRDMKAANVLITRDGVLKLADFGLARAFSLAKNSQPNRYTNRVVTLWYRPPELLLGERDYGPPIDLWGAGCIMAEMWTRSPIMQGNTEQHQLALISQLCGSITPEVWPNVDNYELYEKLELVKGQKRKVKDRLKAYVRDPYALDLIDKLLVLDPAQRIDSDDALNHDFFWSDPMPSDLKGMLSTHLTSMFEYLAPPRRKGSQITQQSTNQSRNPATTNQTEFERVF

CNC(=O)C1[C@H]2O[C@@](C)([C@@H]1N)n1c3ccccc3c3c4c(c5c6ccccc6n2c5c31)C(=O)NC4 (some centres undefined)
residual activity (ABL1 (human); compound 0.01 µM): 98%
residual activity (ABL1 (human); compound 0.1 µM): 82%
residual activity (ABL1 (human); compound 1.0 µM): 37%
residual activity (CDK9 CCNT1 (human); compound 0.01 µM): 61%
residual activity (CDK9 CCNT1 (human); compound 0.1 µM): 17%
residual activity (CDK9 CCNT1 (human); compound 1.0 µM): 15%
residual activity (CSNK1G2 (human); compound 0.01 µM): 106%
residual activity (CSNK1G2 (human); compound 0.1 µM): 97%
residual activity (CSNK1G2 (human); compound 1.0 µM): 86%
residual activity (DDR2 (human); compound 0.1 µM): 8%
residual activity (DDR2 (human); compound 1.0 µM): 3%
residual activity (EIF2AK3 (human); compound 0.01 µM): 62%
residual activity (EIF2AK3 (human); compound 0.1 µM): 59%
residual activity (EIF2AK3 (human); compound 1.0 µM): 36%
residual activity (GSK3B (human); compound 0.01 µM): 51%
residual activity (GSK3B (human); compound 0.1 µM): 15%
residual activity (GSK3B (human); compound 1.0 µM): 7%
residual activity (IRAK1 (human); compound 0.01 µM): 15%
residual activity (IRAK1 (human); compound 0.1 µM): 2%
residual activity (IRAK1 (human); compound 1.0 µM): 3%
residual activity (MAP4K3 (human); compound 0.01 µM): 3%
residual activity (MAP4K3 (human); compound 0.1 µM): 2%
residual activity (MAP4K3 (human); compound 1.0 µM): 1%
residual activity (MAP4K5 (human); compound 0.01 µM): 10%
residual activity (MAP4K5 (human); compound 0.1 µM): 7%
residual activity (MAP4K5 (human); compound 1.0 µM): 4%
residual activity (MAPK7 (human); compound 0.01 µM): 66%
residual activity (MAPK7 (human); compound 0.1 µM): 24%
residual activity (MAPK7 (human); compound 1.0 µM): 12%
residual activity ([1]; compound 0.01 µM): 75%
residual activity ([1]; compound 0.1 µM): 23%
residual activity ([1]; compound 1.0 µM): 7%
residual activity (PDGFRA (human); compound 0.01 µM): 54%
residual activity (PDGFRA (human); compound 0.1 µM): 8%
residual activity (PDGFRA (human); compound 1.0 µM): 2%
residual activity ([2]; compound 0.01 µM): 4%
residual activity ([2]; compound 0.1 µM): 3%
residual activity ([2]; compound 1.0 µM): 1%
residual activity (PRKCG (human); compound 0.01 µM): 95%
residual activity (PRKCG (human); compound 0.1 µM): 51%
residual activity (PRKCG (human); compound 1.0 µM): 13%
residual activity (PTK6 (human); compound 0.01 µM): 28%
residual activity (PTK6 (human); compound 0.1 µM): 16%
residual activity (PTK6 (human); compound 1.0 µM): 4%
residual activity (SIK2 (human); compound 0.01 µM): 4%
residual activity (SIK2 (human); compound 0.1 µM): 0%
residual activity (SIK2 (human); compound 1.0 µM): 1%
residual activity (SIK3 (human); compound 0.01 µM): 31%
residual activity (SIK3 (human); compound 0.1 µM): 7%
residual activity (SIK3 (human); compound 1.0 µM): 2%
residual activity (SRPK1 (human); compound 0.01 µM): 89%
residual activity (SRPK1 (human); compound 0.1 µM): 53%
residual activity (SRPK1 (human); compound 1.0 µM): 11%
residual activity (STK16 (human); compound 0.01 µM): 102%
residual activity (STK16 (human); compound 0.1 µM): 85%
residual activity (STK16 (human); compound 1.0 µM): 69%
residual activity (STK24 (human); compound 0.01 µM): 97%
residual activity (STK24 (human); compound 0.1 µM): 50%
residual activity (STK24 (human); compound 1.0 µM): 6%
residual activity (STK33 (human); compound 0.01 µM): 44%
residual activity (STK33 (human); compound 0.1 µM): 27%
residual activity (STK33 (human); compound 1.0 µM): 23%
residual activity (TEK (human); compound 0.01 µM): 59%
residual activity (TEK (human); compound 0.1 µM): 41%
residual activity (TEK (human); compound 1.0 µM): 20%
residual activity (TESK1 (human); compound 0.01 µM): 76%
residual activity (TESK1 (human); compound 0.1 µM): 19%
residual activity (TESK1 (human); compound 1.0 µM): 2%
residual activity ([3]; compound 0.01 µM): 96%
residual activity ([3]; compound 0.1 µM): 74%
residual activity ([3]; compound 1.0 µM): 17%
residual activity (TLK1 (human); compound 0.01 µM): 93%
residual activity (TLK1 (human); compound 0.1 µM): 39%
residual activity (TLK1 (human); compound 1.0 µM): 6%
residual activity (TSSK1B (human); compound 0.01 µM): 13%
residual activity (TSSK1B (human); compound 0.1 µM): 5%
residual activity (TSSK1B (human); compound 1.0 µM): 4%
residual activity (TTBK1 (human); compound 0.01 µM): 101%
residual activity (TTBK1 (human); compound 0.1 µM): 108%
residual activity (TTBK1 (human); compound 1.0 µM): 99%
residual activity (TTBK2 (human); compound 0.01 µM): 107%
residual activity (TTBK2 (human); compound 0.1 µM): 102%
residual activity (TTBK2 (human); compound 1.0 µM): 90%
residual activity (ULK1 (human); compound 0.01 µM): 102%
residual activity (ULK1 (human); compound 0.1 µM): 43%
residual activity (ULK1 (human); compound 1.0 µM): 11%
residual activity (ULK2 (human); compound 0.01 µM): 30%
residual activity (ULK2 (human); compound 0.1 µM): 5%
residual activity (ULK2 (human); compound 1.0 µM): 1%
residual activity (WNK1 (human); compound 0.1 µM): 91%
residual activity (WNK1 (human); compound 1.0 µM): 86%
residual activity (ZAP70 (human); compound 0.01 µM): 83%
residual activity (ZAP70 (human); compound 0.1 µM): 16%
residual activity (ZAP70 (human); compound 1.0 µM): 2%
